Data as given in patent publication US20160045482A1, “UREIDO-PYRAZOLE DERIVATIVES” (Respivert Limited, priority 2010, published 2016).
“Also recorded” adds a separate entry of the source.

Assays:
ICAM-1 = test: ICAM1 expression activated by human rhinovirus in BEAS2B cells (cell-based ELISA); conditions: for ICAM-1 expression induced by HRV16 inoculation (in words): 2 hr infection
Procedure: BEAS2B cells were infected with rhinovirus at an MOI of 5 and incubated for 2 hr at 33° C. with gentle shaking to enhance adsorption. Test compounds were added 2 hr before HRV infection and 2 hr after infection when residual extracellular HRV was washed out. The cells were then washed with PBS, fresh media was added and the cells were incubated for a further 72 hr. The supernatant was collected for assay of IL-8 concentrations using the Duoset ELISA development kit (R&D Systems, Minneapolis, Minn.). […] After appropriate incubation, cells were fixed with 4% formaldehyde in PBS. After quenching endogenous peroxidase by adding 0.1% sodium azide and 1% hydrogen peroxide, wells were washed with buffer (0.05% Tween in PBS: PBS-Tween). After incubation with the blocking solution (5% milk in PBS-Tween for 1 hr), cells were incubated with anti-human ICAM-1 antibody in 5% BSA PBS-Tween (1:500) overnight. Wells were then washed with PBS-Tween and incubated with the secondary antibody (HRP-conjugated anti-rabbit IgG, Dako Ltd.).

HRV16 [1] = test: HRV-16 infection, assessment of virus load (TCID50) in MRC5 cells; assay type: cell-based, human rhinovirus 16; conditions: HRV16 0.1 MOI, 3 days
Procedure: Human rhinovirus RV16 (HRV16) was obtained from the American Type Culture Collection (Manassas, Va.). Viral stocks were generated by infecting Hela cells with HRV until 80% of the cells were cytopathic. MRC5 cells (human lung fibroblast, ATCC) were infected at 0.1 MOI (multiplicity of infection of 0.1) of HRV16 and incubated for 1 hr at 33° C. with gentle shaking to stimulate adsorption. The cells were then washed with PBS, fresh media (DMEM-5% FCS) was added and the cells were incubated for a further 72 hr. Supernatant (20 μL) was collected and 10-fold serial dilutions were prepared with DMEM containing 1% FCS. All titrations were performed by infecting confluent Hela cell monolayers with serially diluted supernatant (10^−1-10^−5) and then the cytopathic effect at each dilution 3 days after infection assessed by visual inspection. The cells were then stained with Crystal Violet for confirmation. The amount of virus required to infect 50% of Hela cells was calculated in each treatment as TCID50 (50% tissue culture infectious dose, U(unit)/20 μL). Compounds were added 2 hr before HRV16 infection and 1 hr after infection when non-infected HRV was washed out.

NFκB = test: HRV-16 induced activation of NFκB in BEAS2B cells; assay type: cell-based, human; conditions: after 2 hr, at 10 MOI
Procedure: (§1) The cells were then collected by scraping on ice and nuclear extracts were prepared using a nuclear protein extraction kit (ActiveMotif, […], Belgium). NFκB activity and IRF3 activity were then measured using the TransAMTM NFκB (p65) ELISA kit or the TransAMTM IRF3 ELISA kit.

IRF-3 = test: HRV-16 induced activation of IRF-3 in BEAS2B cells; assay type: cell-based, human; conditions: after 2 hr, at 10 MOI
Procedure: as §1

HRV16 mRNA = test: Transcripts of HRV16 by PCR in MRC5 cellular extract; assay type: cell-based, human rhinovirus 16; conditions: MRC5 cells, HRV16 0.1 MOI, 3 days
Procedure: (§2) The MRC5 cells infected with virus (as described above) were used for viral RNA or mRNA detection. Total RNA extraction and reverse transcription were performed using TaqMan®Fast Cells-to-CT™ Kit (Ambion Inc. Austin Tex.). The gene transcript level of HRV16 (PrimerDesign Ltd, Southampton, UK), IFN (Applied Biosystems, Warrington, UK) and GAPDH, as a house-keeping gene (PrimerDesign Ltd, Southampton, UK) were quantified by real-time PCR using commercially available primers on a StepOnePlus™ RT-PCR system (Applied Biosystems, Warrington, UK). Variations in cDNA concentrations between different samples were corrected using the housekeeping gene, whereby the GAPDH concentration in each cDNA sample was calculated, and the cDNA diluted to contain equal amounts of GAPDH. Standard curves for GAPDH were generated by performing a dilution series of the untreated control cDNA. The relative amount of gene transcript present after different treatments was calculated and normalized by dividing the calculated value for the gene of interest by that of the house-keeping gene value.

HRV1B = HRV1B titres in MRC-5 cells; assay type: cell-based, human rhinovirus; conditions: 0.1 or 10 MOI, 3 days, results not shown
HRV39 [2] = test: HRV39 titres in MRC-5 cells; assay type: cell-based, human rhinovirus; conditions: 0.1 or 10 MOI, 3 days, results not shown
HRV39 [3] = test: HRV-39 viral load in air-liquid interface cultured nasal epithelial cells; assay type: cell-based, human rhinovirus
Procedure: (§3) Primary nasal epithelial cells, cultured using an air-liquid interface, were purchased from Epithelix Sarl (Geneva, Switzerland). Fresh, warmed media (200 μL) containing either the test compound at the selected concentration or vehicle (DMSO; final concentration of 0.5%) was transferred to the apical chamber, and fresh, warmed media (700 μL) containing either the test compound at the selected concentration or vehicle (DMSO; final concentration of 0.5%) were transferred to the bottom chamber. After incubation for 2 hr, the media in the upper well was removed carefully. The following day, fresh, warmed media (200 μL) containing either the test compound at the selected concentration or vehicle (DMSO; final concentration of 0.5%) was transferred to the apical chamber again, and after incubation for 2 hr, the media was removed. On the third day, cells were treated again for 2 hr, and the media was removed. […] IL-8 concentrations were determined using a Duoset ELISA development kit (R&D Systems, Minneapolis, Minn.; FIG. 3B). […] The resultant cytopathic effects (CPE) were assessed by visual inspection 5 days after infection. The amount of virus required to infect 50% of Hela cells was calculated for each treatment and is reported as log[TCID50] […]

HRV16 [4] = test: Assessment of HRV16 induced CPE in MRC5; assay type: cell-based, human rhinovirus 16; conditions: Rhinovirus A, 96 h; MRC5 cells, HRV16 MOI of 1, 4 days; read-out: HRV16-induced CPE IC50 Value
Procedure: The supernatants were aspirated and fresh media was added and the preparations were then incubated for 4 days. Where appropriate, cells were pre-incubated with the test compound or DMSO for 2 hr, and the compounds and DMSO added again after washout of the virus. Supernatants were aspirated and incubated with methylene blue solution (2% formaldehyde, 10% methanol and 0.175% Methylene Blue) for 2 hr at RT. After washing, 1% SDS was added to each well, and plates were shaken lightly for 1-2 hr prior to reading the absorbance at 660 nm. The percentage inhibition for each well was calculated. The IC50 value was calculated from the concentration-response curve generated from the serial dilutions of the test compound.

HRV16 [5] = test: HRV-16 infection, assessment of virus load (TCID50) in MRC5 cells; assay type: cell-based, human rhinovirus 16
interferon β = test: Interferon β induction (mRNA) by HRV16 in MRC-5 cells, PCR; assay type: cell-based, human
Procedure: as §2

IL-8 [6] = test: IL-8 release activated by human rhinovirus in BEAS2B cells; assay type: cell-based; conditions: epithelial cells
Procedure: BEAS2B cells were infected with rhinovirus at an MOI of 5 and incubated for 2 hr at 33° C. with gentle shaking to enhance adsorption. Test compounds were added 2 hr before HRV infection and 2 hr after infection when residual extracellular HRV was washed out. The cells were then washed with PBS, fresh media was added and the cells were incubated for a further 72 hr. The supernatant was collected for assay of IL-8 concentrations using the Duoset ELISA development kit (R&D Systems, Minneapolis, Minn.).

IL-8 [7] = test: HRV39-induced IL-8 release in air-liquid interface cultured nasal epithelial cells; assay type: cell-based, human
Procedure: as §3

rhinovirus = conditions: Jefferson and Tyrrell 2007; cited from earlier work
p38MAPKα = biological target: T1, p38MAPKα (Homo sapiens, UniProt Q16539); test: Kinase enzyme activity, FRET (Z-LYTE); assay type: biochemical; conditions: 10 μM ATP, via MAPKAP-K2
T1 construct: purchased Invitrogen
T1 sequence (Q16539 whole entry): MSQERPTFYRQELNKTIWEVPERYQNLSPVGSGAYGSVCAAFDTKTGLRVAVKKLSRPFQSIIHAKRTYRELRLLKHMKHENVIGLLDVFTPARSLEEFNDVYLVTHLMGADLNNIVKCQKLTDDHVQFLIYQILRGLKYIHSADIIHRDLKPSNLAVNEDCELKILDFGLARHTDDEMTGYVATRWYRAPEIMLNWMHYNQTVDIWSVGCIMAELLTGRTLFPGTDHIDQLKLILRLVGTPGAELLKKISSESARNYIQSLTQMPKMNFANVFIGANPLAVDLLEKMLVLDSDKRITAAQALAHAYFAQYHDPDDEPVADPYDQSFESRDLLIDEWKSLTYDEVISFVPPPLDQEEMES
Procedure: (§4) The enzyme inhibitory activity of test compounds was determined by fluorescence resonance energy transfer (FRET) using synthetic peptides labelled with both donor and acceptor fluorophores (Z-LYTE, Invitrogen). For p38 MAPK alpha (MAPK14: Invitrogen), enzyme activity was evaluated indirectly by determining the activation/phosphorylation of the down-stream molecule, MAPKAP-K2. The p38 MAPK a protein was mixed with the test compound for 2 hr at RT. MAPKAP-K2 (Invitrogen), the FRET peptide (2 μM), which is a phosphorylation target for MAPKAP-K2, and ATP (10 μM) were then added to the enzymes/compound mixture and incubated for 1 hr. Development reagent was added and the mixture incubated for 1 hr before detection by fluorescence completed the assay protocol. The enzymes HCK, c-SRC, and SYK were evaluated in a similar fashion. Each enzyme was incubated with the test compound for 2 hr at RT. […] After the development reagent was added the mixtures were incubated for 1 hr and the assay protocol was completed by detection of the fluorescence levels in a microplate reader.

HCK = HCK (Homo sapiens, UniProt P08631); test: Kinase enzyme activity, FRET (Z-LYTE); assay type: biochemical; conditions: 15 μM ATP
HCK, sequence (P08631 whole entry): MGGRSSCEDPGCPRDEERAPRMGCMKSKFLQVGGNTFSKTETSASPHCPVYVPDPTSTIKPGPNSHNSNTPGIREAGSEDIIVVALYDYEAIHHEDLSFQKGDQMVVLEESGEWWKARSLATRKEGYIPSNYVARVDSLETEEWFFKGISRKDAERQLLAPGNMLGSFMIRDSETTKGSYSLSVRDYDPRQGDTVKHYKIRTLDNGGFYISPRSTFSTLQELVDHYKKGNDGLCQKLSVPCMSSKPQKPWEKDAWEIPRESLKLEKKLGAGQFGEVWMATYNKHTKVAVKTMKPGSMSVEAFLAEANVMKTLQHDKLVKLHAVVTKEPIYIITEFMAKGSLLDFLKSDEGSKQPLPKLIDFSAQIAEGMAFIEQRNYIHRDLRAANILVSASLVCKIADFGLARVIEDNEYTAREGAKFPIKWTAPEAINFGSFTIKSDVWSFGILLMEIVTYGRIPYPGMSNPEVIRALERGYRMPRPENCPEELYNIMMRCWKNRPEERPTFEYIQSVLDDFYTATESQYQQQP
Procedure: as §4

[8] = listed as Fluticasone propionate
[9] = MRC5 cells, 0.1 MOI, total period of 84 hr

SMILES | ICAM-1 expression induced by HRV16 inoculation (in words) (ICAM-1) | HRV-16 virus load (extracellular) (HRV16 [1]) | NFκB activation (HRV-16 induced) (NFκB) | IRF-3 activation (HRV-16 induced) (IRF-3) | HRV16 mRNA detected in cellular extracts (HRV16 mRNA) | further results
CCC(=O)O[C@]1(C(=O)SCF)[C@H](C)C[C@H]2[C@@H]3C[C@H](F)C4=CC(=O)C=C[C@]4(C)[C@@]3(F)[C@@H](O)C[C@@]21C [fluticasone propionate] | much more modest | without effect | no clear effect | tendency to inhibit | without effect | Concentrations at which concentration-dependent effects on ICAM-1 are apparent, relative to Reference Compound 2 (ICAM-1; results not shown): 10,000 fold; HRV-16 virus load (extracellular) (HRV16 [1]; [8]): No effect; NFκB activation (HRV-16 induced) (NFκB; [8]): No effect
Cc1ccc(-n2nc(C(C)(C)C)cc2NC(=O)Nc2ccc(OCCN3CCOCC3)c3ccccc23)cc1 [BIRB-796] |  | No effect |  | tendency to inhibit |  | 
COCC(=O)Nc1cc(Oc2ccc(NC(=O)Nc3cc(C(C)(C)C)nn3-c3ccc(C)cc3)c3ccccc23)ccn1 [Reference Compound 2, N-(4-(4-(3-(3-tert-Butyl-1-p-tolyl-1H-pyrazol-5-yl)ureido)naphthalen-1-yloxy)pyridin-2-yl)-2-methoxyacetamide] | remarkably potent inhibitory effect | potent inhibitor; also recorded: Marked inhibition | inhibited; also recorded: Marked inhibition | enhanced; also recorded: Activation | potent inhibitor | HRV1B titres (HRV1B): potent inhibitor; HRV39 titres (HRV39 [2]): potent inhibitor; HRV39 extracellular virus load (HRV39 [3]): potent inhibitor; IC50 (HRV16 [4]): 4.7 nM; Activity versus extracellular HRV16 load, delaying treatment for 24-36 hr (HRV16 [5]; [9]): more sustained; Activity versus extracellular HRV16 load, initial treatment (HRV16 [5]; [9]): marked activity; Interferon β induction by HRV16 (interferon β): marked increases; IL-8 production in response to inoculation using HRV-16 (IL-8 [6]): marked inhibition; IL-8 production in response to inoculation using HRV39 (IL-8 [7]): marked inhibition
Cc1cc(CCCOc2c(C)cc(-c3noc(C(F)(F)F)n3)cc2C)on1 [pleconaril] |  | clearly inhibits |  |  | clearly inhibits | Effect of treatment time versus the point of inoculation with HRV16 (HRV16 [5]; pilot studies): essentially only effective if the drug was administered prior to infection; Activity against rhinovirus infections in clinical development (rhinovirus): active against rhinovirus infections
COc1ccc(-c2cc3nccn3c(Nc3ncccc3C(N)=O)n2)cc1OC [BAY 61-3606] |  |  | inhibited | tendency to inhibit |  | IC50 (p38MAPKα): > 3310 nM; IC50 (HCK): > 3310 nM
